Reference: US4670431A, “Beta-lactam antibacterial agents” (Beecham Group p.l.c., priority 1983, dated 1987)
In brackets after ≈: the same amount, converted by molar mass. Where a name gives a salt, the structure may show the parent alone.

The molecules below were run on P. mirabilis 889 (assay: MIC against P. mirabilis 889). Conditions: not given.
Assay type: cell-based, Proteus mirabilis
Source text: The antibiotic compounds of the present invention are active against a wide range of gram negative and gram positive organisms including E. coli such as, for example ESS, JT4, JT425 and NCTC 10418; Pseudomonas Spp. such Ps.aeruginosa for example 10662 and Dalgleish; Serratia marcescens US32; Klebsiella aerogenes A; Enterobacter cloacae N1; P.mirabilis such as, for example C977 and 889; P.morganii, P.rettgeri; B.subtilis; Staph aureus such as, for example Oxford and Russell; N.catarrhalis 1502; Strep faecalis I; β-Haemolytic Strep CN10. The MIC data included in the following examples is representative of the activity of the compounds of the present invention.

| Structure (SMILES) | MIC against P. mirabilis 889 |
| --- | --- |
| CCN1CCN(C(=O)N[C@@H](C(=O)N[C@]2(NC=O)C(=O)N3C(C(=O)O)=C(COC(C)=O)C[S+]([O-])[C@@H]32)c2ccc(OC(C)=O)c(OC(C)=O)c2)C(=O)C1=O (single isomer, unassigned) [Example 1 Isomer A, Sodium 7β-[D-2-[(4-ethyl-2,3-dioxopiperazin-1-yl)carbonylamino]-2-(3,4-diacetoxyphenyl)acetamido]-7α-formamidocephalosporanate-1-oxide] | 0.5 µg/mL |
| CCN1CCN(C(=O)N[C@@H](C(=O)N[C@]2(NC=O)C(=O)N3C(C(=O)O)=C(COC(C)=O)C[S+]([O-])[C@@H]32)c2ccc(OC(C)=O)c(OC(C)=O)c2)C(=O)C1=O (single isomer, unassigned) [Example 1 Isomer B, Sodium 7β-[D-2-[(4-ethyl-2,3-dioxopiperazin-1-yl)carbonylamino]-2-(3,4-diacetoxyphenyl)acetamido]-7α-formamidocephalosporanate-1-oxide] | < 0.06 µg/mL |
| CCN1CCN(C(=O)N[C@@H](C(=O)N[C@]2(NC=O)C(=O)N3C(C(=O)O)=C(COC(C)=O)C[S+]([O-])[C@@H]32)c2ccccc2)C(=O)C1=O (single isomer, unassigned) [Example 3 Isomer B, Sodium 7β-[D-2-[(4-Ethyl-2,3-dioxopiperazin-1-yl)carbonylamino]-2-phenylacetamido]-7α-formamidocephalosporanate-1-oxide] | 0.25 µg/mL |
| CCN1CCN(C(=O)N[C@@H](C(=O)N[C@]2(NC=O)C(=O)N3C(C(=O)O)=C(CSc4nnnn4C)C[S+]([O-])[C@@H]32)c2ccc(OC(C)=O)c(OC(C)=O)c2)C(=O)C1=O (single isomer, unassigned) [Example 5 Isomer A, Sodium 7β-[D-2-(3,4-diacetoxyphenyl)-2-[(4-ethyl-2,3-dioxopiperazin-1-yl)carbonylamino]acetamido]-7α-formamido-3-[(1-methyl-1H-tetrazol-5-yl)thiomethyl]-ceph-3-em-4-carboxylate-1-oxide] | 0.5 µg/mL |
| CCN1CCN(C(=O)N[C@@H](C(=O)N[C@]2(NC=O)C(=O)N3C(C(=O)O)=C(CSc4nnnn4C)C[S+]([O-])[C@@H]32)c2ccc(OC(C)=O)c(OC(C)=O)c2)C(=O)C1=O (single isomer, unassigned) [Example 5 Isomer B, Sodium 7β-[D-2-(3,4-diacetoxyphenyl)-2-[(4-ethyl-2,3-dioxopiperazin-1-yl)carbonylamino]acetamido]-7α-formamido-3-[(1-methyl-1H-tetrazol-5-yl)thiomethyl]-ceph-3-em-4-carboxylate-1-oxide] | 0.06 µg/mL |
| CCN1CCN(C(=O)N[C@@H](C(=O)N[C@]2(NC=O)C(=O)N3[C@@H](C(=O)O)C(C)(C)[S+]([O-])[C@@H]32)c2ccc(OC(C)=O)c(OC(C)=O)c2)C(=O)C1=O (single isomer, unassigned; isomer a) [Example 17, Sodium 6β-[D-2-[(4-ethyl-2,3-dioxopiperazin-1-yl)carbonylamino]-2-(3,4-diacetoxyphenyl)acetamido]-6α-formamidopenicillanate-1-oxide, Isomer A] | 4.0 µg/mL |
| CCN1CCN(C(=O)N[C@@H](C(=O)N[C@]2(NC=O)C(=O)N3[C@@H](C(=O)O)C(C)(C)[S+]([O-])[C@@H]32)c2ccc(OC(C)=O)c(OC(C)=O)c2)C(=O)C1=O (single isomer, unassigned; isomer b) [Example 18, Sodium 6β-[D-2-[(4-ethyl-2,3-dioxopiperazin-1-yl)carbonylamino]-2-(3,4-diacetoxyphenyl)acetamido]-6α-formamidopenicillanate-1-oxide, Isomer B] | 0.5 µg/mL |

Same assay, conditions: Proteus mirabilis, 889

| MIC | Structure (SMILES) |
| --- | --- |
| 0.25 µg/mL | CCN1CCN(C(=O)N[C@@H](C(=O)N[C@]2(NC=O)C(=O)N3C(C(=O)O)=C(COC(C)=O)C[S+]([O-])[C@@H]32)c2ccccc2)C(=O)C1=O (single isomer, unassigned) [Example 3 Isomer A, Sodium 7β-[D-2-[(4-Ethyl-2,3-dioxopiperazin-1-yl)carbonylamino]-2-phenylacetamido]-7α-formamidocephalosporanate-1-oxide] |
| 0.25 µg/mL | CCN1CCN(C(=O)N[C@@H](C(=O)N[C@]2(NC=O)C(=O)N3C(C(=O)O)=C(COC(C)=O)C[S@+]([O-])[C@@H]32)c2ccc(O)cc2)C(=O)C1=O (single isomer, unassigned) [Example 14 Isomer A, 7β-[D-2-[(4-Ethyl-2,3-dioxopiperazin-1-yl)carbonylamino]-2-(4-hydroxyphenyl)acetamido]-7α-formamidocephalosporanic acid 1-oxide, sodium salt] |
| 0.12 µg/mL | CCN1CCN(C(=O)N[C@@H](C(=O)N[C@]2(NC=O)C(=O)N3C(C(=O)O)=C(COC(C)=O)C[S@@+]([O-])[C@@H]32)c2ccc(O)cc2)C(=O)C1=O (single isomer, unassigned) [Example 14 Isomer B, 7β-[D-2-[(4-Ethyl-2,3-dioxopiperazin-1-yl)carbonylamino]-2-(4-hydroxyphenyl)acetamido]-7α-formamidocephalosporanic acid 1-oxide, sodium salt] |
| 1 µg/mL | CCN1CCN(C(=O)N[C@@H](C(=O)N[C@]2(NC=O)C(=O)N3[C@@H](C(=O)O)C(C)(C)[S+]([O-])[C@@H]32)c2ccccc2)C(=O)C1=O (single isomer, unassigned) [Example 22 Isomer B, Sodium 6β-[D-2-[(4-ethyl-2,3-dioxopiperazin-1-yl)carbonylamino]-2-phenylacetamido]-6α-formamidopenicillanate-1-oxide] |
| 32 µg/mL (≈ 78.3 µM) | CC1(C)[C@H](C(=O)O)N2C(=O)[C@@](NC=O)(NC(=O)[C@H](N)c3ccccc3)[C@H]2[S+]1[O-] (single isomer, unassigned; isomer b) [Example 23, 6β-(D-2-Amino-2-phenylacetamido)-6α-formamidopenicillanic acid-1-oxide, isomer B] |
| 2 µg/mL | CC1(C)[C@H](C(=O)O)N2C(=O)[C@@](NC=O)(NC(=O)[C@H](NC(=O)N3CCN(S(C)(=O)=O)C3=O)c3ccc(O)cc3)[C@H]2[S+]1[O-] (single isomer, unassigned; isomer b) [Example 24, Sodium 6β-[D-2-(4-hydroxyphenyl)-2-[[3-(methylsulphonyl)-2-oxoimidazolidin-1-yl]carbonylamino]acetamido]-6α-formamidopenicillanate-1-oxide (isomer B)] |
| 8 µg/mL | CCN1CCN(C(=O)N[C@@H](C(=O)N[C@]2(NC=O)C(=O)N3C(C(=O)O)=C(COC(C)=O)CS(=O)(=O)[C@@H]32)c2ccccc2)C(=O)C1=O [Example 2, Sodium 7β-[D,2-([4-Ethyl-2,3-dioxopiperazin-1-yl]carbonylamino)-2-phenylacetamido]-7α-formamidocephalosporanate-1,1-dioxide] |
| 0.5 µg/mL (≈ 0.787 µM) | CCN1CCN(C(=O)N[C@@H](C(=O)N[C@]2(NC=O)C(=O)N3C(C(=O)[O-])=C(C[n+]4ccccc4)CS[C@@H]32)c2ccccc2)C(=O)C1=O [Example 7(c), 7β-[D-2-[(4-Ethyl-2.3-dioxopiperazin-1-yl)carbonylamino]-2-phenylacetamido]-7α-formamido-3-pyridiniummethyl-ceph-3-em-4-carboxylate] |
| 8 µg/mL (≈ 12.3 µM) | CCN1CCN(C(=O)N[C@@H](C(=O)N[C@]2(NC=O)C(=O)N3C(C(=O)[O-])=C(C[n+]4ccccc4)C[S+]([O-])[C@@H]32)c2ccccc2)C(=O)C1=O (stereo partly drawn) [Example 7, 7β-[D-2-[(4-Ethyl-2,3-dioxopiperazin-1-yl)carbonylamino]-2-phenylacetamido]-7α-formamido-3-pyridiniummethyl-ceph-3-em-4-carboxylate-1-oxide] |
| 0.125 µg/mL | CCN1CCN(C(=O)N[C@@H](C(=O)N[C@]2(NC=O)C(=O)N3C(C(=O)O)=C(CSc4nnnn4C)CS[C@@H]32)c2ccccc2)C(=O)C1=O [Example 8(b), 7β-[D-2-[(4-Ethyl-2,3-dioxopiperazin-1-yl)carbonylamino]-2-phenylacetamido]-7α-formamido-3-[(1-methyl-1H-tetrazol-5-yl)thiomethyl]ceph-3-em-4-carboxylic acid, sodium salt] |

| Structure (SMILES) | MIC |
| --- | --- |
| CCN1CCN(C(=O)N[C@@H](C(=O)N[C@]2(NC=O)C(=O)N3C(C(=O)O)=C(CSc4nnnn4CC(=O)O)C[S@+]([O-])[C@@H]32)c2ccc(OC(C)=O)c(OC(C)=O)c2)C(=O)C1=O (single isomer, unassigned) [Example 15 Isomer A, 3-[(1-Carboxymethyl-1H-tetrazol-5-yl)thiomethyl]-7β-[D-2(3,4-diacetoxyphenyl)-2-[(4-ethyl-2,3-dioxopiperazin-1-yl)carbonylamino]acetamido]-7α-formamidoceph-3-em-4-carboxylic acid-1-oxide, disodium salt] | 0.5 µg/mL |
| CCN1CCN(C(=O)N[C@@H](C(=O)N[C@]2(NC=O)C(=O)N3C(C(=O)O)=C(CSc4nnnn4CC(=O)O)C[S@@+]([O-])[C@@H]32)c2ccc(OC(C)=O)c(OC(C)=O)c2)C(=O)C1=O (single isomer, unassigned) [Example 15 Isomer B, 3-[(1-Carboxymethyl-1H-tetrazol-5-yl)thiomethyl]-7β-[D-2(3,4-diacetoxyphenyl)-2-[(4-ethyl-2,3-dioxopiperazin-1-yl)carbonylamino]acetamido]-7α-formamidoceph-3-em-4-carboxylic acid-1-oxide, disodium salt] | 0.25 µg/mL |
| CCN1CCN(C(=O)N[C@@H](C(=O)N[C@]2(NC=O)C(=O)N3[C@@H](C(=O)O)C(C)(C)[S+]([O-])[C@@H]32)c2ccc(OC(C)=O)c(OC(C)=O)c2)C(=O)C1=O (stereo partly drawn) [Example 4, Sodium 6β-[D-2-[(4-ethyl-2,3-dioxopiperazin-1-yl)carbonylamino]-2-(3,4-diacetoxyphenyl)acetamido]-6α-formamidopenicillanate-1-oxide] | 0.12 µg/mL |
